# Test results from patent publication US20070203153A1, “Compositions and methods for treating thrombocytopenia” (Astellas Pharma Inc., priority 2005, published 2007).
# How the values were obtained:
# [1] = test system: Platelets of other species; assay: signaling responses in platelets of other species (anti-phospho-STAT5 immunoblot); format: cell-based; conditions: baboon, rhesus, cynomolgus, squirrel monkey, marmoset, beagle dog, guinea pig, rabbit, hamster, rat, mouse platelets
# [2] = test system: Ba/F3 cell; assay: Ba/F3 cell growth (c-Mpl dependence control); format: cell-based; conditions: Ba/F3 cells without c-Mpl
# [3] = test system: human platelets; assay: platelet-increasing effect in human platelet-producing NOD/SCID mice; format: in vivo; conditions: for increase in the human platelet count: day 14
# From the text: Non-obese diabetic/severe combined immunodeficiency (NOD/SCID) mice were characterized as an efficient engraftment model for human hematopoietic stem cells, as this model results in the production of human platelets. In this way, we examined the in vivo platelet-increasing effect of FORMULA X in human platelet-producing NOD/SCID mice in which human hematopoietic stem cells were transplanted.
# In this study, we used commercially available cryopreserved human fetal liver CD34+ cells as a source of human hematopoietic stem cells. The cells were transplanted into sublethally irradiated (240 cGy) NOD/SCID mice. Human platelets started to appear in peripheral blood of these mice 4 weeks after transplantation. The production of human platelets continued up to six months post-transplant. […]
# [4] = target: T1, human receptor (c-Mpl)-expressing Ba/F3 cells (Homo sapiens, UniProt P40238); assay: proliferation of human c-Mpl-expressing Ba/F3 cells (c-Mpl-Ba/F3 cells); format: cell-based; conditions: read-out: proliferation in a c-Mpl-dependent manner, EC50
# T1 construct: expressed in transfected cells; host or cells: Ba/F3 cells
# T1 sequence (P40238 26-635): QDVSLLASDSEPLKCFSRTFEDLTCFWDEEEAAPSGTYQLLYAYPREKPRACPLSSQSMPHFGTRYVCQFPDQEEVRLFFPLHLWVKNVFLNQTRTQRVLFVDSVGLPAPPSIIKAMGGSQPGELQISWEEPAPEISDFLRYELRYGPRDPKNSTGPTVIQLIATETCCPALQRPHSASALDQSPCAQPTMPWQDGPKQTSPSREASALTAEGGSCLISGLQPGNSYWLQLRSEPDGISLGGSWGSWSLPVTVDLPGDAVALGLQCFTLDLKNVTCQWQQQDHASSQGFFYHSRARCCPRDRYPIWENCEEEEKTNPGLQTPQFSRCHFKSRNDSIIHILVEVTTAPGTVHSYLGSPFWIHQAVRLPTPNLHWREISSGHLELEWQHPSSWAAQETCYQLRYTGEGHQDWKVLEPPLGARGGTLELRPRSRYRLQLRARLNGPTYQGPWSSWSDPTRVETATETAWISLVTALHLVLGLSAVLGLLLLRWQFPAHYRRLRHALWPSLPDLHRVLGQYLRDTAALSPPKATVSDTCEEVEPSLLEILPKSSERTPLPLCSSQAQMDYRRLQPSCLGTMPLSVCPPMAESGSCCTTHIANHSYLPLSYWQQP
# From the text: Thrombopoietin (TPO) is a 332 amino acid cytokine that is the principal physiologic regulator of platelet production. Using a high-throughput growth assay based on the proliferation of human receptor (c-Mpl)-expressing Ba/F3 cells (c-Mpl-Ba/F3 cells), the screening of a library led to the identification of a novel series of c-Mpl agonists.
# [5] = test system: human cord blood CD34+ cells; assay: megakaryocyte colony formation of human cord blood CD34+ cells; format: cell-based; conditions: read-out: induction of megakaryocyte colony formation, EC50
# [6] = test system: G-CSF-mobilized human peripheral blood CD34+ cells; assay: degree of polyploidy of G-CSF-mobilized human peripheral blood CD34+ cells after 12 days incubation; format: cell-based; conditions: compared with rhTPO-treated cells
# [7] = test system: G-CSF-mobilized human peripheral blood CD34+ cells; assay: differentiation of human CD34+ cells into megakaryocytes, serum-free liquid culture, flow cytometry; format: cell-based; conditions: day 14
# Procedure: G-SCF-mobilized human peripheral blood CD34+ cells were cultured with a combination of FORMULA X and TPO, FORMULA X, or rhTPO in a serum-free liquid culture system. The numbers of CD34+CD41− cells (hematopoietic progenitor cells), CD34+CD41+ cells (megakaryocytic progenitor cells), and CD34−CD41+ cells (megakaryocytes) were measured using flow cytometry.
# For purposes of this study, the number of megakaryocytes (CD34−CD41+ cells) depicted in FIG. 1 were counted using flow cytometry. The data represents the mean±SE of 5 independent experiments. *: p<0.05, ***p<0.001 compared with 3 nM TPO using Dunnett's test.
# The number of hematopoietic progenitor cells ([…]) and megakaryocytic progenitor cells (CD34+CD41+ cells: b) depicted in FIGS. 2 and 3, respectively, were counted using flow cytometry, then compared with 3 nM TPO using Dunnett's test.
# On the indicated days, the numbers of hematopoietic progenitor cells ([…]), megakaryocytic progenitor cells (CD34+CD41+ cells: b), and megakaryocytes (CD34−CD41+ cells: c) depicted in FIGS. 4, 5, and 6 were counted using flow cytometry on indicated days. The data represent the mean±SE of 5 independent experiments. *: p<0.05, **p<0.01, ***p<0.001 compared with 3 nM TPO using Dunnett's tests.
# [8] = test system: murine platelets; assay: murine platelet count in human platelet-producing NOD/SCID mice; format: in vivo; conditions: during the study period
# Procedure: In this study, we used commercially available cryopreserved human fetal liver CD34+ cells as a source of human hematopoietic stem cells. The cells were transplanted into sublethally irradiated (240 cGy) NOD/SCID mice. Human platelets started to appear in peripheral blood of these mice 4 weeks after transplantation. The production of human platelets continued up to six months post-transplant. Various doses of FORMULA X (0, 0.3, and 3 mg/kg/day) were orally administered for 14 days to NOD/SCID mice that had been confirmed to produce human platelets stably.
# The increase in the human platelet count reached about 2.7-fold at 1 mg/kg/day and about 3.0-fold at 3 mg/kg/day on day 14.
# [9] = target: T2, human c-Mpl (Homo sapiens, UniProt P40238); assay: effect on TPO binding to human c-Mpl using human platelets; conditions: concentrations up to 100 microM
# T2 construct: endogenous in cells; host or cells: human platelets
# T2 sequence (P40238 26-635): T1 sequence (P40238 26-635)
# [10] = test system: human platelets; assay: activation of signaling pathways in platelets (anti-phospho-STAT5 immunoblot), human; format: cell-based
# [11] = test system: chimpanzee platelets; assay: activation of signaling pathways in platelets (anti-phospho-STAT5 immunoblot), chimpanzee; format: cell-based
EC50 [4],EC50 [5],influence on rhTPO binding to human c-Mpl [9],Compound,signaling responses in platelets (anti-phospho-STAT5 immunoblot) [1],effect on Ba/F3 cell growth [2],increase in the human platelet count ([3]; 1 mg/kg/day oral),increase in the human platelet count ([3]; 3 mg/kg/day oral),human platelet count after withdrawal of administration ([3]; after withdrawal),"number of human platelets ([3]; oral administration for 14 days, significance at 1 mg/kg/day and above)",ploidy level of cells [6],number of megakaryocytes (CD34-CD41+ cells) ([7]; agent alone (FIG. 1)),number of megakaryocytes (CD34-CD41+ cells) ([7]; in the presence of 3 nM TPO (FIG. 1)),number of murine platelets [8],activation of signaling pathways in platelets [10],activation of signaling pathways in platelets [11]
3.3 nM,25 nM,did not influence,O=C(Nc1nc(-c2cc(Cl)cs2)c(N2CCN(C3CCCCC3)CC2)s1)c1cnc(N2CCC(C(=O)O)CC2)c(Cl)c1 [FORMULA X],no signaling responses,no effect,about 2.7 fold,about 3.0 fold,return to the pretreatment level,dose-dependently increased,not different from that of cells treated with rhTPO,increased the number of megakaryocytes in a dose-dependent fashion,dose-dependently increased,did not change,occurred only in human and chimpanzee platelets,occurred only in human and chimpanzee platelets
,,,TPO: 332 amino acid cytokine that is the principal physiologic regulator of platelet production,showed signaling responses,,,,,,,increased the number of megakaryocytes in a dose-dependent fashion,,,,
